In patent US11453671B2, “Pyrazolopyrimidine inhibitors of JAK kinases and uses thereof” (Genentech, Inc., priority 2020, dated 2022) one finds EC50, IC50 and Ki data, which are given here for 13 compounds.

Molecules are shown by their SMILES.

A short description of series [1]: Cell cytotoxicity assay HEK-293T (CellTiter-Glo, 72 hours). Type of series: cell-based. Particulars: human, HEK-293T cells, Table 3; 72 hours, top concentration of 50 μM; read-out: Cytotox K-293 EC50. In short, it runs like this:
(§1)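 HEK-293T or Jurkat E6-1 cells plated at 450 cells/well were treated the next day with a 10-point titration from 50 μM top (0.5% DMSO final). After 72 h at 37° C, viability was read by CellTiter-Glo luminescence.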

The subject of series [2] is JAK1: IL-13-stimulated STAT6 phosphorylation in BEAS-2B cells. As to the kind of experiment: P-STAT6 BEAS-2B+IL-13 Cell Assay. The class given is cell-based, human. Conditions: Homo sapiens, BEAS-2B, IL-13 stimulation, read-out: Cellular JAK1 PSTAT6 BEAS2B + IL13 IC50. In short, it runs like this:
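BEAS-2B cells in BEGM preincubated 1 h at 37 °C with 10-point, 1:2 compound dilutions, then stimulated 15 min with IL-13 (250 ng/mL stock). Lysate pSTAT6 (Tyr641) captured on total-STAT6 antibody and read by MSD electrochemiluminescence; IC50 from four-parameter logistic fit.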

Series [3] is described as follows: Cell cytotoxicity assay Jurkat (CellTiter-Glo, 72 hours). Type of series: cell-based. Particulars: human, Jurkat clone E6-1 cells, Table 3; 72 hours, top concentration of 50 μM; read-out: Cytotox Jurkat EC50. In short, it runs like this: as §1
In general terms: Cellular ATP, detected with luciferase, serves as a proxy for viable cell number.

Series [4] has as its target Recombinant human JAK2 kinase domain protein (Residues 812-1132) (Homo sapiens, UniProt O60674). The experiment in a line: JAK2 biochemical assay (microfluidic mobility shift, peptide phosphorylation). Conditions: Enzyme JAK2 Ki (nM), 25 μM ATP, 0.2 nM total JAK2.
Description: JAK1 and JAK2 Biochemical Assays
The in vitro biochemical assays quantify JAK-catalyzed phosphorylation of a synthetic peptide, as detected using a LabChip® EZ Reader II microfluidic mobility shift instrument (PerkinElmer; Waltham, Mass.). […] Y-1B is fluorescently labeled on the N-terminus with 5-FAM (5-carboxyfluorescein) and contains a single tyrosine residue (Y) that can be phosphorylated by JAK activity. The substrate peptide stock is prepared in DMSO at 5 mM.
In each titration experiment, test compound was tested in duplicate at each of the twelve concentrations. Blank reactions contained ATP, peptide, and DMSO, but no JAK or test compound, whereas uninhibited control reactions contained ATP, peptide, JAK, and DMSO, but no test compound.
Peptide plus ATP mixture (24 μL) was added to 1 μL of test compound in DMSO (or DMSO alone). The reactions were initiated by adding 25 μL of JAK enzyme to the inhibitor/peptide/ATP mixture before thoroughly mixing the resultant solution. Reactions were incubated at room temperature (22° C.-23° C.) in a final volume of 50 μL per well in 384-well plates.
In each reaction, the residual Y-1B substrate and the phospho-peptide product generated were separated using the EZ Reader II instrument. Electrophoretic separation of molecules of product from molecules of substrate was achieved using downstream and upstream voltages of −500 and −2600 V, respectively, at an operating pressure of −1.3 psi.
The extent (or percent) of conversion of substrate to product was calculated from the corresponding peak heights in the electropherogram using HTS Well Analyzer software, Version 5.2 (PerkinElmer), and the following equation (Equation 1): % conversion=[P÷(S+P)]×100 Equation 1 where S and P represent the peak heights of the substrate and product, respectively. After any baseline signal from blank wells containing no JAK was subtracted from the signal of all test wells, the % conversion data were converted to fractional activity as shown in Equation 2, where vi and vo are the % conversion in the presence and absence of test compound, respectively.

Recombinant human JAK2 kinase domain protein (Residues 812-1132), sequence (O60674 812-1132): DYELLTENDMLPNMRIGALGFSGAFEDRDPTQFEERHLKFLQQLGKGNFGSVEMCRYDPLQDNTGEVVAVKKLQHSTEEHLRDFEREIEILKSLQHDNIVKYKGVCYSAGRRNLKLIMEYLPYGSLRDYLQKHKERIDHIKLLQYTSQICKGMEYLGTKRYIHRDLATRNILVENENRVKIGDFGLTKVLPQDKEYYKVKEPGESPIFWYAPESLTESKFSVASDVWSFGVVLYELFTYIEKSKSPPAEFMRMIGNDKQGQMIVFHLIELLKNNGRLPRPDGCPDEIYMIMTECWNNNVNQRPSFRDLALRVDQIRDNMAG

One may read the EC50 as the midpoint of the concentration-response curve. As a reminder, the IC50 is the concentration that inhibits the measured activity by half. Usually Ki stands for the equilibrium dissociation constant of an inhibitor or competing ligand from its target. As for `N#CCn1cc(NC(=O)c2cnn3cccnc23)c(-c2cc(S(=O)(=O)C3CC3)ccc2OC(F)F)n1` [Example 45, N-[1-(cyanomethyl)-3-[5-cyclopropylsulfonyl-2-(difluoromethoxy)phenyl]pyrazol-4-yl]pyrazolo[1,5-a]pyrimidine-3-carboxamide], the concentration giving a half-maximal response (EC50) at 72 h in series [1] and in series [3] was no less than 50000 nM in each case. Moreover, the IC50 in series [2] was determined as 35 nM. In addition, in series [4], the Ki was 0.35 nM.
For the compound `CN(CCO)S(=O)(=O)c1ccc(OC(F)F)c(-c2nn(C)cc2NC(=O)c2cnn3cccnc23)c1` [Example 73, N-(3-(2-(difluoromethoxy)-5-(N-(2-hydroxyethyl)-N-methylsulfamoyl)phenyl)-1-methyl-1H-pyrazol-4-yl)pyrazolo[1,5-a]pyrimidine-3-carboxamide], the EC50 at 72 h was found to be 2900 nM in series [1] and 8400 nM in series [3]. In addition, in series [2], the half-inhibitory concentration (IC50) turned out to be 53 nM. Moreover, in series [4], the inhibitory constant (Ki) is 0.21 nM.
With `Cn1cc(NC(=O)c2cnn3cccnc23)c(-c2cc(S(=O)(=O)c3cn[nH]c3)ccc2OC(F)F)n1` [Example 41, N-[3-[2-(difluoromethoxy)-5-(1H-pyrazol-4-ylsulfonyl)phenyl]-1-methyl-pyrazol-4-yl]pyrazolo[1,5-a]pyrimidine-3-carboxamide], the EC50 at 72 h in series [1] worked out at 28000 nM; in series [3] it was 35000 nM. Besides, in series [2], the IC50 is 37 nM. The Ki in series [4] was 0.1 nM.
For `Cn1cc(NC(=O)c2cnn3cccnc23)c(-c2cc(S(=O)(=O)CCO)ccc2OC(F)F)n1` [Example 5, N-[3-[2-(difluoromethoxy)-5-(2-hydroxyethylsulfonyl)phenyl]-1-methyl-pyrazol-4-yl]pyrazolo[1,5-a]pyrimidine-3-carboxamide] the same measures were 10200 nM, 23000 nM, 35 nM and 0.19 nM.
For `COc1cccc(S(=O)(=O)c2ccc(OC(F)F)c(-c3nn(C)cc3NC(=O)c3cnn4cccnc34)c2)c1` [Example 12, N-[3-[2-(difluoromethoxy)-5-(3-methoxyphenyl)sulfonyl-phenyl]-1-methyl-pyrazol-4-yl]pyrazolo[1,5-a]pyrimidine-3-carboxamide] the same measures were 36000 nM, no less than 50000 nM, 18 nM and 0.14 nM.
In the same order, the values of `Cn1cc(NC(=O)c2cnn3cccnc23)c(-c2cc(S(=O)(=O)c3ccncc3)ccc2OC(F)F)n1` [Example 16, N-[3-[2-(difluoromethoxy)-5-(4-pyridylsulfonyl)phenyl]-1-methyl-pyrazol-4-yl]pyrazolo[1,5-a]pyrimidine-3-carboxamide] are 7600 nM, 6200 nM, 15 nM and 0.19 nM.
As to `CN1CCCC1CCn1cc(S(=O)(=O)c2ccc(OC(F)F)c(-c3nn(C)cc3NC(=O)c3cnn4cccnc34)c2)cn1` (stereo in doubt) [Example 56, N-[3-[2-(difluoromethoxy)-5-[1-[2-[(2R)-1-methylpyrrolidin-2-yl]ethyl]pyrazol-4-yl]sulfonyl-phenyl]-1-methyl-pyrazol-4-yl]pyrazolo[1,5-a]pyrimidine-3-carboxamide], the concentration giving a half-maximal response (EC50) at 72 h was 10000 nM in series [1] and 24000 nM in series [3]. In addition, in series [2], the IC50 was determined as 56 nM. The Ki in series [4] came to 0.76 nM.
As to `Cn1cc(NC(=O)c2cnn3cccnc23)c(-c2cc3c(cc2OC(F)F)NCCS3(=O)=O)n1` [Example 46, N-[3-[6-(difluoromethoxy)-1,1-dioxo-3,4-dihydro-2H-1lambda6,4-benzothiazin-7-yl]-1-methyl-pyrazol-4-yl]pyrazolo[1,5-a]pyrimidine-3-carboxamide], the concentration giving a half-maximal response (EC50) at 72 h in series [1] and in series [3] was no less than 50000 nM each time. In addition, the IC50 in series [2] was determined as 49 nM. Also, the inhibitory constant (Ki) in series [4] stood at 0.087 nM.
With `CS(=O)(=O)c1ccc(OC(F)F)c(-c2nn(CC#N)cc2NC(=O)c2cnn3cccnc23)c1` [Example 28, N-[1-(cyanomethyl)-3-[2-(difluoromethoxy)-5-methylsulfonyl-phenyl]pyrazol-4-yl]pyrazolo[1,5-a]pyrimidine-3-carboxamide], the figures for the EC50 at 72 h in series [1] and in series [3] were 24000 nM and 39000 nM, respectively. In series [2], the IC50 came out at 9.5 nM. For the same compound, the Ki in series [4] came out at 0.14 nM.
For `CN(C)CCS(=O)(=O)c1ccc(OC(F)F)c(-c2nn(C)cc2NC(=O)c2cnn3cccnc23)c1` [Example 7, N-[3-[2-(difluoromethoxy)-5-[2-(dimethylamino)ethylsulfonyl]phenyl]-1-methyl-pyrazol-4-yl]pyrazolo[1,5-a]pyrimidine-3-carboxamide] the same measures were 6900 nM, 2100 nM, 32 nM and 0.49 nM.
Regarding `C[C@H](Cn1cc(S(=O)(=O)c2ccc(OC(F)F)c(-c3nn(C)cc3NC(=O)c3cnn4cccnc34)c2)cn1)N(C)C` [Example 59, N-[3-[2-(difluoromethoxy)-5-[1-[(2R)-2-(dimethylamino)propyl]pyrazol-4-yl]sulfonyl-phenyl]-1-methyl-pyrazol-4-yl]pyrazolo[1,5-a]pyrimidine-3-carboxamide], the concentration for a half-maximal effect (EC50) at 72 h came out at 14000 nM in series [1] and 30000 nM in series [3]. Besides, in series [2], the half-maximal inhibitory concentration (IC50) was 32 nM. Also, the inhibition constant Ki in series [4] was determined as 0.54 nM.
Turning to `C[C@@H](O)CS(=O)(=O)c1ccc(OC(F)F)c(-c2nn(C)cc2NC(=O)c2cnn3cccnc23)c1` (stereo in doubt) [Example 25, N-[3-[2-(difluoromethoxy)-5-[rac-(2R)-2-hydroxypropyl]sulfonyl-phenyl]-1-methyl-pyrazol-4-yl]pyrazolo[1,5-a]pyrimidine-3-carboxamide], the concentration for a half-maximal effect (EC50) at 72 h in series [1] was 48000 nM; in series [3], no less than 50000 nM. Also, the IC50 in series [2] came out at 20 nM. The Ki in series [4] was 0.2 nM.
For `Cn1cc(S(=O)(=O)c2ccc(OC(F)F)c(-c3nn(C)cc3NC(=O)c3cnn4cccnc34)c2)cn1` [Example 35, N-[3-[2-(difluoromethoxy)-5-(1-methylpyrazol-4-yl)sulfonyl-phenyl]-1-methyl-pyrazol-4-yl]pyrazolo[1,5-a]pyrimidine-3-carboxamide] the same measures were 17000 nM, 21000 nM, 24 nM and 0.19 nM.
